In the assay the target is Leucine-rich repeat serine/threonine-protein kinase 2 (Homo sapiens, UniProt Q5S007, G2019S). Put plainly: Inhibition of GST-tagged truncated human LRRK2 G2019S mutant using fluorescein labeled LRRKtide peptide as substrate preincubated for 15 mins followed by substrate addition and measured after 90 mins in presence of ATP at Km concentration by TR-FRET Lanthascreen assay. For orientation: In TR-FRET formats the signal depends on donor and acceptor labels being close together.
Sequence of Leucine-rich repeat serine/threonine-protein kinase 2 (Q5S007 whole entry G2019S, the tested form may be a part): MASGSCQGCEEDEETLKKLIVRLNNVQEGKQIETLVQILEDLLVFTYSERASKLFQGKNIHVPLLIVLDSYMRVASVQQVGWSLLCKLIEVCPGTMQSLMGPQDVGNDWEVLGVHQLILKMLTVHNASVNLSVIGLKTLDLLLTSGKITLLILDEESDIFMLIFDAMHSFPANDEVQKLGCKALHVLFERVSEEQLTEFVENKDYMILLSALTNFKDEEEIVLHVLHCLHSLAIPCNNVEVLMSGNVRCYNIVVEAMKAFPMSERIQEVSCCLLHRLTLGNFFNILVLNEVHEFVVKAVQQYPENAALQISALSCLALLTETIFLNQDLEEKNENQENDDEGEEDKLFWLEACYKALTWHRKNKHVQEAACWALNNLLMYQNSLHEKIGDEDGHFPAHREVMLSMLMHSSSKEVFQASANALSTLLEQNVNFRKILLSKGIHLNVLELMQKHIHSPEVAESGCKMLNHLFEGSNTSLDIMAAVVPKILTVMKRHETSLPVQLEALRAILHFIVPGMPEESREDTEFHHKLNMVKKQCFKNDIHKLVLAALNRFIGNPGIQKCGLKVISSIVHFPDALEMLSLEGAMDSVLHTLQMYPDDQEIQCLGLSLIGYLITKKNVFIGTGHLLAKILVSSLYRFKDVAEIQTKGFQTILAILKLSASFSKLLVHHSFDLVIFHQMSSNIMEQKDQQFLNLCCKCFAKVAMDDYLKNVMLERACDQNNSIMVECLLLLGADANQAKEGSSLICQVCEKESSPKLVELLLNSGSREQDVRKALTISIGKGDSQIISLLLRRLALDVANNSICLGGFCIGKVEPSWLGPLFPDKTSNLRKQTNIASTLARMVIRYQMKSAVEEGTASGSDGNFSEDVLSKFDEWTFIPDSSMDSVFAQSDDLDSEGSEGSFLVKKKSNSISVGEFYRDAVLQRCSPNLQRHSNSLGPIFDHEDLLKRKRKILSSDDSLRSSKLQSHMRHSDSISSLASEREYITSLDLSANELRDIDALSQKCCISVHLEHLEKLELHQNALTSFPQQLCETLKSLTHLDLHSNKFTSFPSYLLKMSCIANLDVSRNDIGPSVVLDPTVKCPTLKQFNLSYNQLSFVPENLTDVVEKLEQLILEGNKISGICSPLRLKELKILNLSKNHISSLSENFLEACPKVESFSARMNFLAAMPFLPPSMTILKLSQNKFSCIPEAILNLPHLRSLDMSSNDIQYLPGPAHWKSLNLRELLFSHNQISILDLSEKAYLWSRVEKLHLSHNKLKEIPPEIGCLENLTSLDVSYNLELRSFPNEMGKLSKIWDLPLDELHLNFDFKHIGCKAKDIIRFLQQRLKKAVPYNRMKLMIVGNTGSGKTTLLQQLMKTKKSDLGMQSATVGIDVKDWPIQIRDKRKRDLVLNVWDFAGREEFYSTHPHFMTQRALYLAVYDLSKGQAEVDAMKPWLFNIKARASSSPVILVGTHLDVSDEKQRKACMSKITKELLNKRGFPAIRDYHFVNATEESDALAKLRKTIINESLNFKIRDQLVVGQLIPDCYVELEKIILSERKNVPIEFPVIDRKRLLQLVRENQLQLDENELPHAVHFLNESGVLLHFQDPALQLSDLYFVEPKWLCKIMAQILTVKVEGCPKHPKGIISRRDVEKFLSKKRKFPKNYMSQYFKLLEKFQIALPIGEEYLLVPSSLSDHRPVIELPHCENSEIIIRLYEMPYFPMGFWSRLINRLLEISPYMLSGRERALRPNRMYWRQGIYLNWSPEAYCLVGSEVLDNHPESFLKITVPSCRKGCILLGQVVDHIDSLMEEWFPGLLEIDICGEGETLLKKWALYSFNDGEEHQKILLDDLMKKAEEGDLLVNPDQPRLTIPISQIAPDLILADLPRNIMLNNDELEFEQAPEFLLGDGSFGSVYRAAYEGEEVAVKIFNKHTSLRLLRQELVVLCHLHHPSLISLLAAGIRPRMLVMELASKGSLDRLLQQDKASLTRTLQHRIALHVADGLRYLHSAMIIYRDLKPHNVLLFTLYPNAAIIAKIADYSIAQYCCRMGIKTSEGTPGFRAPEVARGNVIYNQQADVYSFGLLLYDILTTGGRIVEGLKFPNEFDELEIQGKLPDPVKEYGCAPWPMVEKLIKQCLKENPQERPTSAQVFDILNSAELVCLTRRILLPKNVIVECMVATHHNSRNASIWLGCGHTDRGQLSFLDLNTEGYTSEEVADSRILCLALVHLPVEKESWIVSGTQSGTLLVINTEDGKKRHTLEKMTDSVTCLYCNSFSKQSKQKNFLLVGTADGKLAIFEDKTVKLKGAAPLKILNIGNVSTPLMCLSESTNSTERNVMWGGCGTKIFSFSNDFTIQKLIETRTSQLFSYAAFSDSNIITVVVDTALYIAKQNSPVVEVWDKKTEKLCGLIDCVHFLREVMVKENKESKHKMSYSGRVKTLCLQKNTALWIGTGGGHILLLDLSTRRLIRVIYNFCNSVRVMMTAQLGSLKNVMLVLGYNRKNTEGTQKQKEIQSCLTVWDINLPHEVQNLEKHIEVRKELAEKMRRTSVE
In general, IC50 refers to the concentration needed to halve the response being measured. In the case of `CC1NN=CC1Nc1ncc2cc(Cl)c(N3CCC(C)(O)C(C)C3)cc2n1` (stereo unspecified), the IC50 is 64.6 pM.

`CC(C)(O)CN1CCN(c2cc3nc(Nc4cnn(C5CC5)c4Cl)ncc3cc2Cl)CC1`: the IC50 was 75.9 pM. On to `Clc1cc2cnc(Nc3cnn(C45CC(C4)C5)c3Cl)nc2cc1N1CCC2(CCCO2)CC1`, for which the IC50 was 174 pM. To `CC(C)(C)Cn1cc(Nc2ncc3cc(Cl)c(N4CCC(C5(C)COC5)CC4)cc3n2)cn1` belongs 187 pM.

On to `Cc1c(Nc2ncc3cc(Cl)c(N4C(=O)OC[C@H]4C)cc3n2)cnn1C1CCOCC1`, for which the IC50 was 451 pM. As for `CC1(O)CCN(c2cc3nc(Nc4cnn(C5CC5)c4Cl)ncc3cc2Cl)C1` (stereo unspecified), the IC50 was 169 pM.

These data come from ChEMBL document CHEMBL5131528, “2-Aminoquinazolines as LRRK2 Inhibitors for Treating Parkinson's Disease” (ACS Med Chem Lett, 2022).
